This note sets out measurements from ChEMBL document CHEMBL3217673, “Synthesis of cyanine dyes and investigation of their in vitro antiprotozoal activities” (Medchemcomm, 2012).

Data set [1] deals with Trypanosoma brucei rhodesiense. Description: Antiprotozoal activity against Trypanosoma brucei rhodesiense STIB900. It is filed as functional, organism-based.
For another data set, the system named is Plasmodium falciparum. Description: Antiprotozoal activity against chloroquine and pyrimethamine-resistant Plasmodium falciparum K1. It is filed as functional, organism-based.
Data set [2] can be described thus: Selectivity index, ratio of IC50 for rat L6 cells to IC50 for chloroquine and pyrimethamine-resistant Plasmodium falciparum K1. It is filed as toxicity, cell-based. To be noted: read-out: Ratio IC50.
In a further data set the test system is L6. The experiment in a line: Cytotoxicity against rat L6 cells. The format is cell-based.
Data set [3] can be described thus: Selectivity index, ratio of IC50 for rat L6 cells to IC50 for Leishmania donovani MHOMET-67/L82. The format is toxicity, cell-based. The following applies: read-out: Ratio IC50.
Another data set relates to Trypanosoma cruzi. Description: Antiprotozoal activity against Trypanosoma cruzi Tulahuen C2C4. The format is functional, organism-based.
A short description of data set [4]: Selectivity index, ratio of IC50 for rat L6 cells to IC50 for Trypanosoma brucei rhodesiense STIB900. It is filed as toxicity, cell-based. The following applies: read-out: Ratio IC50.
A short description of data set [5]: Selectivity index, ratio of IC50 for rat L6 cells to IC50 for Trypanosoma cruzi Tulahuen C2C4. It is filed as toxicity, cell-based. To be noted: read-out: Ratio IC50.
A further data set concerns Leishmania donovani. Description: Antiprotozoal activity against Leishmania donovani MHOMET-67/L82. It is filed as functional, organism-based.

In the case of `CN1/C(=C/C=C/c2oc3ccccc3[n+]2C)Oc2ccccc21`, the IC50 – broadly, the concentration needed to halve the response being measured – is 707 nM in data set [1]; 38 nM with Plasmodium falciparum; 3760 nM in the data set with L6; 106 nM in the data set on Trypanosoma cruzi; 211 nM with Leishmania donovani. The selectivity ratio in data set [2] turned out to be 98.5; in data set [3] it was 17.8; in data set [4] it was 5.3; in [5], 35.6.

For the compound `Cc1ccc2c(c1)N(C)/C(=C/C=C/c1oc3ccccc3[n+]1C)O2`, the IC50 in data set [1] turned out to be 48 nM; in the data set with Plasmodium falciparum, 90 nM; in the data set with L6, 1140 nM; in the data set on Trypanosoma cruzi, 19 nM; with Leishmania donovani, 22 nM. The selectivity ratio in data set [2] is 12.6; in data set [3] it was 50.5; in data set [4], 23.8; in [5] it was 57.7.

With `Cc1ccc2c(c1)N(C)/C(=C/C=C/c1oc3ccc(C)cc3[n+]1C)O2`, the IC50 in data set [1] was 54 nM; in the data set on Plasmodium falciparum, 14 nM; in the data set with L6, 230 nM; in the data set with Leishmania donovani, 5 nM. In addition, the selectivity ratio worked out at 17 in data set [2], 42.5 in [3] and 4.3 in [4].

On to `CN1/C(=C/C=C/c2oc3ccccc3[n+]2C)Oc2ccc(Cl)cc21`, for which the IC50 is 5840 nM in data set [1]; 925 nM in the data set with Plasmodium falciparum; 23900 nM in the data set with L6; 7750 nM with Trypanosoma cruzi; 1460 nM in the data set with Leishmania donovani. For the same compound, the selectivity ratio is 25.8 in data set [2], 16.3 in data set [3], 4.1 in data set [4] and 3.1 in [5].

`Cc1ccc2oc(/C=C/C=C3\Oc4ccc(Cl)cc4N3C)[n+](C)c2c1`: the IC50 was 136 nM in [1]; 468 nM in the data set with Plasmodium falciparum; 7580 nM with L6; 1370 nM in the data set with Trypanosoma cruzi; 110 nM in the data set on Leishmania donovani. The selectivity ratio came out at 16.2 in [2], 68.6 in data set [3], 55.7 in data set [4] and 5.5 in data set [5].

For the compound `CN1/C(=C/C=C/c2oc3ccc(Cl)cc3[n+]2C)Oc2ccc(Cl)cc21`, the IC50 was determined as 5200 nM in data set [1]; 6030 nM in the data set on Plasmodium falciparum; 35900 nM in the data set with L6; 47800 nM in the data set on Trypanosoma cruzi; 5320 nM in the data set on Leishmania donovani. The selectivity ratio was 6 in data set [2], 6.7 in data set [3], 6.9 in [4] and 0.8 in [5].

As to `CN1/C(=C/C=C/c2oc3ccccc3[n+]2C)Sc2ccccc21`, the concentration for half-maximal inhibition (IC50) in [1] is 185 nM; in the data set on Plasmodium falciparum it was 2 nM; in the data set with L6, 849 nM; in the data set with Trypanosoma cruzi, 11 nM; with Leishmania donovani, 90 nM. Moreover, the selectivity ratio in [2] was determined as 303; in data set [3] it was 9.5; in data set [4], 4.6; in data set [5], 75.8.

Consider `Cc1ccc2c(c1)N(C)/C(=C/C=C/c1oc3ccccc3[n+]1C)S2`, for which the IC50 in [1] came out at 113 nM; in the data set with Plasmodium falciparum, 11 nM; in the data set with L6, 146 nM; with Leishmania donovani, 14 nM. Also, the selectivity ratio in data set [2] came to 13.5; in [3], 10.8; in [4], 1.3.

Consider `Cc1ccc2oc(/C=C/C=C3\Sc4ccccc4N3C)[n+](C)c2c1`, for which the half-inhibitory concentration (IC50) turned out to be 496 nM in [1], 16 nM in the data set with Plasmodium falciparum, 121 nM in the data set on L6 and 40 nM with Leishmania donovani. For the same compound, the selectivity ratio in data set [2] was 7.5; in [3], 3; in [4] it was 0.2.

Regarding `Cc1ccc2c(c1)N(C)/C(=C/C=C/c1oc3ccc(C)cc3[n+]1C)S2`, the IC50 in [1] amounted to 39 nM; in the data set with Plasmodium falciparum, 8 nM; in the data set on L6, 94 nM; in the data set on Leishmania donovani, 10 nM. The selectivity ratio worked out at 12 in data set [2], 9 in data set [3] and 2.4 in data set [4].

For `CN1/C(=C/C=C/c2oc3ccc(Cl)cc3[n+]2C)Sc2ccccc21`, the IC50 in [1] turned out to be 13 nM; in the data set with Plasmodium falciparum, 20 nM; in the data set on L6, 3400 nM; in the data set with Trypanosoma cruzi, 284 nM; in the data set with Leishmania donovani, 61 nM. In addition, the selectivity ratio in data set [2] is 166; in data set [3], 55.4; in data set [4], 266; in data set [5] it was 12.

As for `Cc1ccc2oc(/C=C/C=C3\Sc4ccc(Cl)cc4N3C)[n+](C)c2c1`, the IC50 in [1] was 62 nM; with Plasmodium falciparum, 20 nM; with L6, 1180 nM; in the data set with Trypanosoma cruzi it was 109 nM; in the data set on Leishmania donovani, 89 nM. Moreover, the selectivity ratio in data set [2] came out at 60; in [3] it was 13.3; in data set [4] it was 19.2; in data set [5], 10.9.

For `CN1/C(=C/C=C/c2oc3ccccc3[n+]2C)Sc2ccc(Cl)cc21`, the IC50 in data set [1] was 266 nM; with Plasmodium falciparum, 13 nM; in the data set with L6 it was 2280 nM; in the data set with Trypanosoma cruzi, 355 nM; with Leishmania donovani it was 120 nM. Moreover, the selectivity ratio was 178 in [2], 19 in data set [3], 8.6 in data set [4] and 6.4 in [5].

Consider `CN1/C(=C/C=C/c2oc3ccc(Cl)cc3[n+]2C)Sc2ccc(Cl)cc21`, for which the IC50 in data set [1] worked out at 129 nM; with Plasmodium falciparum, 21 nM; in the data set on L6, 2980 nM; with Trypanosoma cruzi, 2860 nM; with Leishmania donovani it was 85 nM. The selectivity ratio in data set [2] worked out at 141; in [3], 35.3; in [4], 23.1; in data set [5] it was 1.

For `CCN1/C(=C/C=C/c2oc3ccc(C)cc3[n+]2C)Sc2ccc(F)cc21`, the IC50 was determined as 285 nM in data set [1]; 10 nM in the data set with Plasmodium falciparum; 655 nM with L6; 27 nM in the data set on Trypanosoma cruzi; 15 nM with Leishmania donovani. In addition, the selectivity ratio came to 66 in data set [2], 44 in data set [3], 2.3 in [4] and 24 in data set [5].

With `Cc1ccc2oc(/C=C/C=C3\Sc4ccc(F)cc4N3C)[n+](C)c2c1`, the IC50 in [1] was found to be 180 nM; in the data set on Plasmodium falciparum, 10 nM; with L6 it was 1490 nM; in the data set on Trypanosoma cruzi, 8 nM; with Leishmania donovani, 21 nM. Further, the selectivity ratio in [2] was 145; in data set [3], 72.6; in [4], 8.3; in data set [5], 194.

Turning to `CCN1/C(=C/C=C/c2oc3ccc(Cl)cc3[n+]2C)Sc2ccc(F)cc21`, the IC50 was 850 nM in [1]; 14 nM in the data set on Plasmodium falciparum; 3100 nM with L6; 853 nM in the data set with Trypanosoma cruzi; 106 nM in the data set on Leishmania donovani. Besides, the selectivity ratio in data set [2] turned out to be 218; in [3], 29.1; in [4] it was 3.6; in [5], 3.6.

`CN1/C(=C/C=C/c2oc3ccccc3[n+]2C)Sc2ccc(F)cc21`: the IC50 in data set [1] came to 867 nM; with Plasmodium falciparum it was 5 nM; with L6, 1070 nM; with Trypanosoma cruzi, 186 nM; with Leishmania donovani, 67 nM. Besides, the selectivity ratio in data set [2] stood at 201; in [3] it was 16.1; in data set [4] it was 1.2; in [5] it was 5.7.

In the case of `CCN1/C(=C/C=C/c2oc3ccccc3[n+]2C)Sc2ccc(F)cc21`, the IC50 in [1] stood at 841 nM; in the data set on Plasmodium falciparum, 3 nM; in the data set on L6, 1510 nM; in the data set on Trypanosoma cruzi, 262 nM; in the data set on Leishmania donovani, 54 nM. For the same compound, the selectivity ratio in data set [2] came to 586; in data set [3] it was 27.9; in data set [4], 1.8; in data set [5], 5.7.

With `CN1/C(=C/C=C/c2sc3ccccc3[n+]2C)Sc2ccccc21`, the half-inhibitory concentration (IC50) in data set [1] amounted to 115 nM; in the data set with Plasmodium falciparum, 3 nM; with L6, 338 nM; in the data set on Trypanosoma cruzi it was 5 nM; in the data set on Leishmania donovani, 5 nM. Further, the selectivity ratio in data set [2] stood at 126; in data set [3] it was 63; in data set [4], 2.9; in data set [5], 63.

In the case of `CN1/C(=C/C=C/c2sc3ccccc3[n+]2C)Sc2ccc(Cl)cc21`, the IC50 in data set [1] came to 64 nM; with Plasmodium falciparum, 7 nM; in the data set on L6, 331 nM; in the data set with Trypanosoma cruzi it was 7 nM; in the data set with Leishmania donovani, 64 nM. For the same compound, the selectivity ratio in [2] came to 45; in data set [3], 5.2; in [4], 5.2; in [5] it was 45.

On to `CN1/C(=C/C=C/c2sc3ccc(Cl)cc3[n+]2C)Sc2ccc(Cl)cc21`, for which the IC50 came to 18 nM in data set [1]; 2 nM in the data set with Plasmodium falciparum; 1080 nM in the data set with L6; 7080 nM in the data set with Trypanosoma cruzi; 9 nM with Leishmania donovani. Moreover, the selectivity ratio in [2] amounted to 477; in data set [3], 119; in data set [4], 59.6; in data set [5] it was 0.2.

In the case of `CN1/C(=C/C=C/c2sc3ccccc3[n+]2C)Sc2ccc(F)cc21`, the IC50 is 394 nM in [1], 5 nM in the data set on Plasmodium falciparum, 483 nM in the data set with L6 and 79 nM in the data set with Leishmania donovani. Moreover, the selectivity ratio was 94.5 in data set [2], 6.1 in data set [3] and 1.2 in [4].

`CCN1/C(=C/C=C/c2sc3ccccc3[n+]2C)Sc2ccc(F)cc21`: the IC50 worked out at 452 nM in data set [1], 7 nM in the data set on Plasmodium falciparum, 240 nM in the data set with L6 and 111 nM with Leishmania donovani. In addition, the selectivity ratio in data set [2] was found to be 32.3; in data set [3], 2.2; in [4], 0.5.
